Assay results: article doi:10.1101/2023.11.24.568596v1 (biorxiv, 2023)
Blank lines part the entries; values can stand above or below the compound they belong to.

Key:
Conditions in all cases: binder
MAP2K4 = biological target: T1, MAP2K4 (Homo sapiens, UniProt P45985)
T1 sequence (P45985 1-399): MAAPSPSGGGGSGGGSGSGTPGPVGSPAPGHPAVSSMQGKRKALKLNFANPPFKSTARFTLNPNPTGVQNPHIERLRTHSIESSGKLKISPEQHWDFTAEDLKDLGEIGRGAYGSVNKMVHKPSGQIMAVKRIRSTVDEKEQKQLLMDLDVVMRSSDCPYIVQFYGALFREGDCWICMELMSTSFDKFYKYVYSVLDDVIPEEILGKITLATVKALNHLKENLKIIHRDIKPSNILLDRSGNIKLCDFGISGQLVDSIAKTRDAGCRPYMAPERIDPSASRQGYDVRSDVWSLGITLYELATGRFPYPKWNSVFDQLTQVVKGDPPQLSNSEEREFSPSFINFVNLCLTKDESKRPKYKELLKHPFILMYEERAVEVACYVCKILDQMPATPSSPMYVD

JNK3 = JNK3 (Homo sapiens, UniProt P53779)
PHKG2 = biological target: T2, PHKG2 (Homo sapiens, UniProt P15735)
T2 sequence (P15735 1-406): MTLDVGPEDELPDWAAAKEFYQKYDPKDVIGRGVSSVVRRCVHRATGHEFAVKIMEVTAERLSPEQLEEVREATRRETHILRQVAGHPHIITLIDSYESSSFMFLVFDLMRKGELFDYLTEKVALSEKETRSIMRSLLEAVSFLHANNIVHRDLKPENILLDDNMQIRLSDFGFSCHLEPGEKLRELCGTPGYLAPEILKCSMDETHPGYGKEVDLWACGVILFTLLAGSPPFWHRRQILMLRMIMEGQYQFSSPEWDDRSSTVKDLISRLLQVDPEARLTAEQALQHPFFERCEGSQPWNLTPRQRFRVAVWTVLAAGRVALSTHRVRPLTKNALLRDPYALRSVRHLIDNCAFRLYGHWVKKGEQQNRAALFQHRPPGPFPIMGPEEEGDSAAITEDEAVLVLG

PCTAIRE1 = PCTAIRE1 (Homo sapiens, UniProt Q00536)
DRAK2 = biological target: T3, DRAK2 (Homo sapiens, UniProt O94768)
T3 sequence (O94768 1-372): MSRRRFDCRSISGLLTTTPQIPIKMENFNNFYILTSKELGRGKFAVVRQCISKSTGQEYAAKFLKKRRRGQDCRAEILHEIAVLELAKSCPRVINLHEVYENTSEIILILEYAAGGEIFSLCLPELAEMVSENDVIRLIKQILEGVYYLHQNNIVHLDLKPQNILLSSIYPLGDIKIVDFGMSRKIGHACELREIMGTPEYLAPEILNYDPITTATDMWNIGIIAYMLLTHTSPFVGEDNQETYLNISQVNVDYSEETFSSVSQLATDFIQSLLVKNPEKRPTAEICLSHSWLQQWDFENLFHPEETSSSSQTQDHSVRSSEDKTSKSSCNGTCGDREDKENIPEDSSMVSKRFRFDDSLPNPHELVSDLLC

AAK1 = AAK1 (Homo sapiens, UniProt Q2M2I8)
EphA7 = EphA7 (Homo sapiens, UniProt Q15375)
CASK = biological target: T4, CASK (Homo sapiens, UniProt O14936)
T4 sequence (O14936 1-926): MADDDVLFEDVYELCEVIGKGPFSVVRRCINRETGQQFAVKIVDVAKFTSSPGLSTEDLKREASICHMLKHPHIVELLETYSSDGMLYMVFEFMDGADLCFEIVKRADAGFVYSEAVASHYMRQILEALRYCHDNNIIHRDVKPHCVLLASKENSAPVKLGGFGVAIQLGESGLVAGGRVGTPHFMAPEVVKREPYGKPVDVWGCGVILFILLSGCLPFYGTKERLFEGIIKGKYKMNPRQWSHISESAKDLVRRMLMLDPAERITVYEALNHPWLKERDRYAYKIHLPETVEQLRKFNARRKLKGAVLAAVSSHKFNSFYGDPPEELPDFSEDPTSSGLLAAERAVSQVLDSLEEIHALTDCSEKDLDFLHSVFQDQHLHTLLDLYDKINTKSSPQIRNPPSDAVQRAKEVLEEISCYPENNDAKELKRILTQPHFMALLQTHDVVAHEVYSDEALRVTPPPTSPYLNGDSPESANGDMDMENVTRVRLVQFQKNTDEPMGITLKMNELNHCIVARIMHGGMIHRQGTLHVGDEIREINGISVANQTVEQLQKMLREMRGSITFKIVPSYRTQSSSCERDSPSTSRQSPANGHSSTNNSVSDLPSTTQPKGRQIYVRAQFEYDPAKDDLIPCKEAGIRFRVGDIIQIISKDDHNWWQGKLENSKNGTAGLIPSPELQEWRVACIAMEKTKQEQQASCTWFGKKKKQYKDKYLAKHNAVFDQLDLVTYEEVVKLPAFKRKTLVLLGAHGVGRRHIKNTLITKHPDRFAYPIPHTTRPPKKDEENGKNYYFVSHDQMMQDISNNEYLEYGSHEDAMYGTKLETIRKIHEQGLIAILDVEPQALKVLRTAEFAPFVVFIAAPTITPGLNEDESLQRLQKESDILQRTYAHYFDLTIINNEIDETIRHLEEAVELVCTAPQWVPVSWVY

JNK3, sequence (P53779 whole entry): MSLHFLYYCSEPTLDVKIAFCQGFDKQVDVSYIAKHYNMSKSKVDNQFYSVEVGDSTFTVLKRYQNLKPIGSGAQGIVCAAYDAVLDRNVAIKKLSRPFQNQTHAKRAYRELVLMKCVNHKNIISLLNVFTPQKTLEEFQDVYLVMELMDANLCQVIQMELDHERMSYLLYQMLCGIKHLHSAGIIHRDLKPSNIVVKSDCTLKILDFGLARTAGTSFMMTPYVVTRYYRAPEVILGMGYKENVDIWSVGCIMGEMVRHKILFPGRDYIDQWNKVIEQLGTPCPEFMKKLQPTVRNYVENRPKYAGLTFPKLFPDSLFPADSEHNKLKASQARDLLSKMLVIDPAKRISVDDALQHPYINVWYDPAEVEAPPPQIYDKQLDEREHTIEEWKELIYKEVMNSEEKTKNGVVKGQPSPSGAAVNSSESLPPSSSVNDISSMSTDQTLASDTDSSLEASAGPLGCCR
EphA7, sequence (Q15375 whole entry): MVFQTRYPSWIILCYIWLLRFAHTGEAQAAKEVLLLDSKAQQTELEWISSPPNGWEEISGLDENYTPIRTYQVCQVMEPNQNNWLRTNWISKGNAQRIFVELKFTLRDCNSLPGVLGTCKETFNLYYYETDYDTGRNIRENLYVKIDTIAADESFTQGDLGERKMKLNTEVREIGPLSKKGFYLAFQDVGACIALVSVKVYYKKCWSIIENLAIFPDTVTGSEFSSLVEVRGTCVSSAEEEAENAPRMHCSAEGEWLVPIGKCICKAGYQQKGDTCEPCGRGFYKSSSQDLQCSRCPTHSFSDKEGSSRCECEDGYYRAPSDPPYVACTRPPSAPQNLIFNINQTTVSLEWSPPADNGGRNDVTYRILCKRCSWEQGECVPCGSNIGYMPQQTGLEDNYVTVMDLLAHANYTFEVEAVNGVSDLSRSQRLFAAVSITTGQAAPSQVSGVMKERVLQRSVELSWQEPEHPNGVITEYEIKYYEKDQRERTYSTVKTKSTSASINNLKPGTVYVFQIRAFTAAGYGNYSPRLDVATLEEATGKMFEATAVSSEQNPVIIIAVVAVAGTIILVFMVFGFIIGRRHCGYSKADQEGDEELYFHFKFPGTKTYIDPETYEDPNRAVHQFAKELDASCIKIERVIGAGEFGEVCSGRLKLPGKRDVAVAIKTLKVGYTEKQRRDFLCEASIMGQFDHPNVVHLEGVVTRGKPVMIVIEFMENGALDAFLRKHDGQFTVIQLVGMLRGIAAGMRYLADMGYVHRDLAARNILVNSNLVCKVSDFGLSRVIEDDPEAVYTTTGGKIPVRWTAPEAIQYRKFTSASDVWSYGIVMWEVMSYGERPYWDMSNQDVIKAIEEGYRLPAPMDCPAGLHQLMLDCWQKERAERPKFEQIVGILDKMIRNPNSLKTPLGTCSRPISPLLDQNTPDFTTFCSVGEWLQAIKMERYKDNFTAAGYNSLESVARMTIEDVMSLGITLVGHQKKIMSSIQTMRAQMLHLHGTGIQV
PCTAIRE1, sequence (Q00536 whole entry): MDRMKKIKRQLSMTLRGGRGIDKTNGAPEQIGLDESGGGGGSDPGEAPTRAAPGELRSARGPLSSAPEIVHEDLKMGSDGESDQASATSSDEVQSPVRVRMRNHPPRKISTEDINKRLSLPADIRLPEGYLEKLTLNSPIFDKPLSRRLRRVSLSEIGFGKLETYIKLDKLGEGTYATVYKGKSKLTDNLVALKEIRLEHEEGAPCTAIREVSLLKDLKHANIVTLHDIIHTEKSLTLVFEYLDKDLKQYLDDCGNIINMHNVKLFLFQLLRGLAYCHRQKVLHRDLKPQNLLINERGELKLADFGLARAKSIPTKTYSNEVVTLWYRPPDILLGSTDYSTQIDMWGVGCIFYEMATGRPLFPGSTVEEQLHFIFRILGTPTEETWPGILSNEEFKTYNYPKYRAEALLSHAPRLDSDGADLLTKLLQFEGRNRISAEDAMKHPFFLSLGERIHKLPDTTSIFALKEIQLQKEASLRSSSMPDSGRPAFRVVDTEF
AAK1, sequence (Q2M2I8 whole entry): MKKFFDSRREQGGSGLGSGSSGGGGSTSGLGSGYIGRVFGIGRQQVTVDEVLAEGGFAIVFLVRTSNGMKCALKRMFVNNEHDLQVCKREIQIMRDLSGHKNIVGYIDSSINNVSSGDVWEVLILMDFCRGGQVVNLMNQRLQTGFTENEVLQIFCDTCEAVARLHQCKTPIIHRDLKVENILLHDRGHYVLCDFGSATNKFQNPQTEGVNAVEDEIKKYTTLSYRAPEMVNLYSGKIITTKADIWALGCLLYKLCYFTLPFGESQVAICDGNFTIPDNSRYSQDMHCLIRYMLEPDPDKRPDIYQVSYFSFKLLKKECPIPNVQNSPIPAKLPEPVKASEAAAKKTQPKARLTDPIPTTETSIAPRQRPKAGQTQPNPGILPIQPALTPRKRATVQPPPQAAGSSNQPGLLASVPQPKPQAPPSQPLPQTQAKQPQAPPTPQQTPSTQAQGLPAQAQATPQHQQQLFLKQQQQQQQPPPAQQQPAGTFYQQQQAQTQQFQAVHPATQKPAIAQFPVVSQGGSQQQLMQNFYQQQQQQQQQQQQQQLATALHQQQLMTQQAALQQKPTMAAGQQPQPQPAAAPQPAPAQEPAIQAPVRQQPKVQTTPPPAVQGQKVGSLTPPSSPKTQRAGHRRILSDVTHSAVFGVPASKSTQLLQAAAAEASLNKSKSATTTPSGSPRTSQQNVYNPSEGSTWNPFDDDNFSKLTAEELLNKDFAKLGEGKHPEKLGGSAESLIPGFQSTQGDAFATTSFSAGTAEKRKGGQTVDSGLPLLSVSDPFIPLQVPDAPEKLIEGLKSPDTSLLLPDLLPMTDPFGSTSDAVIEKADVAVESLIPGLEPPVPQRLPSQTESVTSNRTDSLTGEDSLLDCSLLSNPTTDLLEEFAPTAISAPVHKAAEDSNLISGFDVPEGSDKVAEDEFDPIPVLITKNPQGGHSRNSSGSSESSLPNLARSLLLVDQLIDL

- ΔTm MRLW5 (20) (MAP2K4): 7.7 °C
- ΔTm MRLW5 (20) (JNK3): 1.3 °C
- ΔTm MRLW5 (20) (PHKG2): 1.8 °C
- ΔTm MRLW5 (20) (PCTAIRE1): 2.3 °C
- ΔTm MRLW5 (20) (DRAK2): 0.7 °C
- ΔTm MRLW5 (20) (AAK1): 1.4 °C
- ΔTm MRLW5 (20) (EphA7): 7.7 °C
- ΔTm MRLW5 (20) (CASK): -0.5 °C
SMILES: CNc1ncc2cc(-c3ccc(-c4cccc(C)n4)cc3Cl)c(=O)n(CCCCN)c2n1 [compound 20, MRLW5]

- ΔTm MR24 (24) (MAP2K4): 5.0 °C
- ΔTm MR24 (24) (JNK3): 3.7 °C
- ΔTm MR24 (24) (PHKG2): 1.0 °C
- ΔTm MR24 (24) (PCTAIRE1): 1.7 °C
- ΔTm MR24 (24) (DRAK2): 2.9 °C
- ΔTm MR24 (24) (AAK1): -0.4 °C
- ΔTm MR24 (24) (EphA7): 0.3 °C
- ΔTm MR24 (24) (CASK): -0.4 °C
SMILES: Cc1cccc(-c2ccc(-c3cc4cnc(NC(CO)CO)nc4n(CCCCN)c3=O)c(Cl)c2)n1 [compound 24, 8-(4-Aminobutyl)-6-(2-chloro-4-(6-methylpyridin-2-yl)phenyl)-2-((1,3-dihydroxypropan-2-yl)amino)pyrido[2,3-d]pyrimidin-7(8H)-one]

- ΔTm MR26 (26) (MAP2K4): 5.6 °C
- ΔTm MR26 (26) (JNK3): 1.1 °C
- ΔTm MR26 (26) (PHKG2): 2.1 °C
- ΔTm MR26 (26) (PCTAIRE1): 1.8 °C
- ΔTm MR26 (26) (DRAK2): 5.1 °C
- ΔTm MR26 (26) (AAK1): -0.2 °C
- ΔTm MR26 (26) (EphA7): 2.7 °C
- ΔTm MR26 (26) (CASK): -0.3 °C
SMILES: Cc1cccc(-c2ccc(-c3cc4cnc(NCCCN5CCOCC5)nc4n(CCCCN)c3=O)c(Cl)c2)n1 [compound 26, MR26]

More lines, now with the values behind:

SMILES: CNc1ncc2cc(-c3ccc(-c4cccc(C)n4)cc3Cl)c(=O)n(CCC3CCNCC3)c2n1 [compound 22, 6-(2-Chloro-4-(6-methylpyridin-2-yl)phenyl)-2-(methylamino)-8-(2-(piperidin-4-yl)ethyl)pyrido[2,3-d]pyrimidin-7(8H)-one]
- ΔTm 22 (MAP2K4): 6.1 °C
- ΔTm 22 (JNK3): 3.3 °C
- ΔTm 22 (PHKG2): 1.4 °C
- ΔTm 22 (PCTAIRE1): 3.0 °C
- ΔTm 22 (DRAK2): 2.7 °C
- ΔTm 22 (AAK1): 2.8 °C
- ΔTm 22 (EphA7): 7.7 °C
- ΔTm 22 (CASK): 0.3 °C

SMILES: CNc1ncc2cc(-c3ccc(-c4cccc(C)n4)cc3Cl)c(=O)n(C[C@H]3CC[C@H](N)CC3)c2n1 [compound 23, 23]
- ΔTm 23 (MAP2K4): 8.2 °C
- ΔTm 23 (JNK3): 1.3 °C
- ΔTm 23 (PHKG2): 2.4 °C
- ΔTm 23 (PCTAIRE1): 4.4 °C
- ΔTm 23 (DRAK2): 1.7 °C
- ΔTm 23 (AAK1): 3.3 °C
- ΔTm 23 (EphA7): 10.4 °C
- ΔTm 23 (CASK): -0.4 °C

SMILES: Cc1cccc(-c2ccc(-c3cc4cnc(NCCCc5ccc(N)cc5)nc4n(CCCCN)c3=O)c(Cl)c2)n1 [compound 25, 8-(4-Aminobutyl)-2-((3-(4-aminophenyl)propyl)amino)-6-(2-chloro-4-(6-methylpyridin-2-yl)phenyl)pyrido[2,3-d]pyrimidin-7(8H)-one]
- ΔTm 25 (MAP2K4): 7.9 °C
- ΔTm 25 (JNK3): 3.2 °C
- ΔTm 25 (PHKG2): 4.0 °C
- ΔTm 25 (PCTAIRE1): 4.5 °C
- ΔTm 25 (DRAK2): 7.5 °C
- ΔTm 25 (AAK1): 0.8 °C
- ΔTm 25 (EphA7): 5.1 °C
- ΔTm 25 (CASK): -0.4 °C
